From ChEMBL document CHEMBL1201862, “PubChem BioAssay data set” (2004)
Calls of active or inactive are those of the source. Rule as the data show it, for most assays here: actives have a measured IC50 and inactives only a lower limit.

Legend:
Bcl-2-related protein A1 = target: T1, Bcl-2-related protein A1 (Mus musculus, UniProt Q07440); type: functional;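 also: confirmatory dose–response counterscreen on Bfl-1, used to check hits from a UBC13 polyubiquitin inhibitor campaign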
T1 sequence (Q07440 whole entry): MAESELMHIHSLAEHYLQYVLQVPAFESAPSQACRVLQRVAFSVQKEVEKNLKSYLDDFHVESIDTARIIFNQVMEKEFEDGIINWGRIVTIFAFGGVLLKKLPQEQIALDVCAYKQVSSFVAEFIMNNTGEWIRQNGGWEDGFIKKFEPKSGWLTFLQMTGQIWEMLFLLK

[1] = target: T2, Ubiquitin-conjugating enzyme E2 N (Homo sapiens, UniProt P61088); type: functional
T2 sequence (P61088 whole entry): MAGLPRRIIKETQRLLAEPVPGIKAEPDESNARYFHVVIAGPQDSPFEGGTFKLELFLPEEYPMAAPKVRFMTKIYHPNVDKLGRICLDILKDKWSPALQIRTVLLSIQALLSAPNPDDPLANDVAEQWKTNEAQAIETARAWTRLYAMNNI

[2] = target: T2, Ubiquitin-conjugating enzyme E2 N; type: functional; remark: listed apart in the source
Exodeoxyribonuclease V = Exodeoxyribonuclease V (Escherichia coli (strain K12), UniProt P04993+P07648+P08394); assay: RecBCD inhibition via phage-restricted bacterial growth – absorbance, V66 E. coli, mutant T4 phage, counter-screen for AddAB inhibitor project, dose response (AID 492957); type: functional, cell-based, Escherichia coli str. K-12 substr. MG1655
[3] = Counterscreen for AddAB inhibitors: absorbance-based bacterial cell-based high throughput dose response assay for inhibitors of bacterial viability. [Related pubchem assays (depositor defined):AID435030, AID449728, AID449731, AID488942, AID488955, AID488956]; type: functional
[4] = target: Glyceraldehyde-3-phosphate dehydrogenase (Homo sapiens, UniProt P04406)
[5] = target: T3, Alkaline phosphatase, tissue-nonspecific isozyme (Homo sapiens, UniProt P05186); assay: potency against alkaline phosphatase TNAP – biochemical, luminescent, dose response, SAR follow-up (AID 1056)
T3 sequence (P05186 whole entry): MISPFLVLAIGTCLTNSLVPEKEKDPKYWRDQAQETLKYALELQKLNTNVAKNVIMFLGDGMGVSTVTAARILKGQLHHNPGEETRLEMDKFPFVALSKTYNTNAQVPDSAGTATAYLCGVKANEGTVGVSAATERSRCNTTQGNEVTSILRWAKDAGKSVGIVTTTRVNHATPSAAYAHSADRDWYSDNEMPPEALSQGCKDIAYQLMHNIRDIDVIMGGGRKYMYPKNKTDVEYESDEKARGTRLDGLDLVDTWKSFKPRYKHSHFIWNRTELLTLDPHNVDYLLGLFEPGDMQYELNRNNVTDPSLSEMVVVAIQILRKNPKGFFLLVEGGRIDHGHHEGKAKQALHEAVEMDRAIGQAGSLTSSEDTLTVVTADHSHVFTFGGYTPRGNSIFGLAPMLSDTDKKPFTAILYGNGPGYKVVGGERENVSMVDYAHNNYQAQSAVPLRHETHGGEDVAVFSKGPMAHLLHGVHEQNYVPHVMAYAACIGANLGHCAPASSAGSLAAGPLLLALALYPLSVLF

[6] = target: Intestinal-type alkaline phosphatase (Mus musculus, UniProt P24822); assay: PubChem AID 488785; type: functional
[7] = target: T3, Alkaline phosphatase, tissue-nonspecific isozyme; assay: TNAP enzyme inhibition by screening hits, dose response, selectivity assay for mouse IAP inhibitor project, biochemical, human TNAP, uHTS hits (AID 488906); type: functional
[8] = target: Intestinal-type alkaline phosphatase (Homo sapiens, UniProt P09923); assay: inhibition of human intestinal alkaline phosphatase – biochemical, dose response (AID 488876); type: functional
[9] = target: DNA dC->dU-editing enzyme APOBEC-3A (Homo sapiens, UniProt P31941); assay: Dose Response confirmation of small molecule APOBEC3A DNA Deaminase Inhibitors via a fluorescence-based single-stranded DNA deaminase assay. [Related pubchem assays (depositor defined):AID493011, AID493024]; type: functional
[10] = target: DNA dC->dU-editing enzyme APOBEC-3G (Homo sapiens, UniProt Q9HC16); type: functional;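 also: Dose-response counterscreen measuring inhibition of APOBEC3G DNA deaminase activity, run while confirming APOBEC3A inhibitors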
Sequence of DNA dC->dU-editing enzyme APOBEC-3G (Q9HC16 whole entry): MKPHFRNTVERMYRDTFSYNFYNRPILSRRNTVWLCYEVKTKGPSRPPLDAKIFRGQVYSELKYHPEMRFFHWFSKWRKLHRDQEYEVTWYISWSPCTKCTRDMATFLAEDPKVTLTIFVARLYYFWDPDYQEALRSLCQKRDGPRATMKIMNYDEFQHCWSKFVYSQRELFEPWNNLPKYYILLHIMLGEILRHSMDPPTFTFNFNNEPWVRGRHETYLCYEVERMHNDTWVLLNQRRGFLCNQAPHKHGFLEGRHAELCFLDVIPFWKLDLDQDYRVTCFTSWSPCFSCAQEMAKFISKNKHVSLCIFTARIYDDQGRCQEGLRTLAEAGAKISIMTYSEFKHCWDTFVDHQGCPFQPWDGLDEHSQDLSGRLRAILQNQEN

Sequence of Intestinal-type alkaline phosphatase (Homo sapiens, UniProt P09923) (P09923 whole entry): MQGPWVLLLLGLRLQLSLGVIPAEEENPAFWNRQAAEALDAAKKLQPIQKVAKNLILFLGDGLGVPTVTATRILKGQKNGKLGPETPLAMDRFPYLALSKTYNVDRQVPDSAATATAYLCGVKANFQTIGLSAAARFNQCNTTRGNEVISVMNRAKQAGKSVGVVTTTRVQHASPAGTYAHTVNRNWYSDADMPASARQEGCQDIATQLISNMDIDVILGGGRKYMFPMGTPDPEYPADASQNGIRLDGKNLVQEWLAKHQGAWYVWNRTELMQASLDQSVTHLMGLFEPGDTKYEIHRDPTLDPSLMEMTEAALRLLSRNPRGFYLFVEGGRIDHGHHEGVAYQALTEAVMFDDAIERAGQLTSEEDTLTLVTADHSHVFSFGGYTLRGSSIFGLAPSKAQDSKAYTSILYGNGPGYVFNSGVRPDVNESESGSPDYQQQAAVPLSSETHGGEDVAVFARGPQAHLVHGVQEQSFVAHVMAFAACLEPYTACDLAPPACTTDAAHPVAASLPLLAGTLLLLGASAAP
Sequence of Glyceraldehyde-3-phosphate dehydrogenase (P04406 whole entry): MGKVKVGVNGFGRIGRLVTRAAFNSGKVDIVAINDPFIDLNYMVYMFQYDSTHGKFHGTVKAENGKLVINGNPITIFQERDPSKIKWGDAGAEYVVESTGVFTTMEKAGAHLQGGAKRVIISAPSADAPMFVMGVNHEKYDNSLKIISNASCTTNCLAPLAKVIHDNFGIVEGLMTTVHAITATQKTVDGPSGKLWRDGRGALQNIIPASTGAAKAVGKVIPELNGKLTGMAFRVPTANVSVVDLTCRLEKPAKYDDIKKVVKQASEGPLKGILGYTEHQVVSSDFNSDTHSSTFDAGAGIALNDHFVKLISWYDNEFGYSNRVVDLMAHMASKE
Sequence of Exodeoxyribonuclease V (P04993 whole entry): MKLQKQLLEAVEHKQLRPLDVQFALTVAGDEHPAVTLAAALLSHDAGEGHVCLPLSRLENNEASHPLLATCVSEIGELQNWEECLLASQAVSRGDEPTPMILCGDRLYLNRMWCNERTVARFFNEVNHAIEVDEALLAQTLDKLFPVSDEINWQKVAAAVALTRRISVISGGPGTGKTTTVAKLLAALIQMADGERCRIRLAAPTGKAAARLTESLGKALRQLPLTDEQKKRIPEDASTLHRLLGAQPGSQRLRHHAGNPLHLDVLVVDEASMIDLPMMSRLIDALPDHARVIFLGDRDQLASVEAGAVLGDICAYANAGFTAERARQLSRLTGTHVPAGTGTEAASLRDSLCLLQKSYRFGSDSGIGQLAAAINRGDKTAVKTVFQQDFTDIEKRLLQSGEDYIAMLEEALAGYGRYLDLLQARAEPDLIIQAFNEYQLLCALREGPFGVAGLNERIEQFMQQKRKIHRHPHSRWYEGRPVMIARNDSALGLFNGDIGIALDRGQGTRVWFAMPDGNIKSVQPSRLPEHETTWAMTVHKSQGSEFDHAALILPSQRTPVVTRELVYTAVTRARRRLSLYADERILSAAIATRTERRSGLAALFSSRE
Sequence of Exodeoxyribonuclease V (P07648 whole entry): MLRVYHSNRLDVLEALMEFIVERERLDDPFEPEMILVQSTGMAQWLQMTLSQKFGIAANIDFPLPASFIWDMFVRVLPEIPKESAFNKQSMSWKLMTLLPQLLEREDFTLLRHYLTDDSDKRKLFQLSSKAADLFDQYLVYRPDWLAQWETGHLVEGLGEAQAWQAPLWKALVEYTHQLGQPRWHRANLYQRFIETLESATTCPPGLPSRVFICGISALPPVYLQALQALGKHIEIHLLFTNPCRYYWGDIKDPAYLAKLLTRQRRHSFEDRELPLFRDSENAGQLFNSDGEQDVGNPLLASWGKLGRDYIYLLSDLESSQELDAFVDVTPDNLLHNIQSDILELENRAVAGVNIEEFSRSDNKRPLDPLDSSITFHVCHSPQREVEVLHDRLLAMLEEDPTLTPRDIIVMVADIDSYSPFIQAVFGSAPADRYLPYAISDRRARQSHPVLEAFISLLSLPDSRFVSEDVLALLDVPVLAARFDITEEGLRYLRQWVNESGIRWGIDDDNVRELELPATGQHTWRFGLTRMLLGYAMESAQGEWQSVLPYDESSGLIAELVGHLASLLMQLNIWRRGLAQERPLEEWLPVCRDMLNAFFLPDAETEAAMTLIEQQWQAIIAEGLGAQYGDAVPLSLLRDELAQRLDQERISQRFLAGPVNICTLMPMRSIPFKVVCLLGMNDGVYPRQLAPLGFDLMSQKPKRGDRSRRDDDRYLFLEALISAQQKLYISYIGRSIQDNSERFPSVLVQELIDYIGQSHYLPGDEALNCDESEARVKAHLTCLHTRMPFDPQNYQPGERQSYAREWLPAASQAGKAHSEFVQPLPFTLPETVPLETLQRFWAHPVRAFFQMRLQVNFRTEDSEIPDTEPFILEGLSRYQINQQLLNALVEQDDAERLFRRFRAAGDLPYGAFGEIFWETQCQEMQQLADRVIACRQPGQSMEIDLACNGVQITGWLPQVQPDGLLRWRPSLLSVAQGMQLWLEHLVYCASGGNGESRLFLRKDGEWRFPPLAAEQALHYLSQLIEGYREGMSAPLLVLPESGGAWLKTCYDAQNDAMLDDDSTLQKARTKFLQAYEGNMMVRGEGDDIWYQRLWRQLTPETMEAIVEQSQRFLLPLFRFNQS
Sequence of Exodeoxyribonuclease V (P08394 whole entry): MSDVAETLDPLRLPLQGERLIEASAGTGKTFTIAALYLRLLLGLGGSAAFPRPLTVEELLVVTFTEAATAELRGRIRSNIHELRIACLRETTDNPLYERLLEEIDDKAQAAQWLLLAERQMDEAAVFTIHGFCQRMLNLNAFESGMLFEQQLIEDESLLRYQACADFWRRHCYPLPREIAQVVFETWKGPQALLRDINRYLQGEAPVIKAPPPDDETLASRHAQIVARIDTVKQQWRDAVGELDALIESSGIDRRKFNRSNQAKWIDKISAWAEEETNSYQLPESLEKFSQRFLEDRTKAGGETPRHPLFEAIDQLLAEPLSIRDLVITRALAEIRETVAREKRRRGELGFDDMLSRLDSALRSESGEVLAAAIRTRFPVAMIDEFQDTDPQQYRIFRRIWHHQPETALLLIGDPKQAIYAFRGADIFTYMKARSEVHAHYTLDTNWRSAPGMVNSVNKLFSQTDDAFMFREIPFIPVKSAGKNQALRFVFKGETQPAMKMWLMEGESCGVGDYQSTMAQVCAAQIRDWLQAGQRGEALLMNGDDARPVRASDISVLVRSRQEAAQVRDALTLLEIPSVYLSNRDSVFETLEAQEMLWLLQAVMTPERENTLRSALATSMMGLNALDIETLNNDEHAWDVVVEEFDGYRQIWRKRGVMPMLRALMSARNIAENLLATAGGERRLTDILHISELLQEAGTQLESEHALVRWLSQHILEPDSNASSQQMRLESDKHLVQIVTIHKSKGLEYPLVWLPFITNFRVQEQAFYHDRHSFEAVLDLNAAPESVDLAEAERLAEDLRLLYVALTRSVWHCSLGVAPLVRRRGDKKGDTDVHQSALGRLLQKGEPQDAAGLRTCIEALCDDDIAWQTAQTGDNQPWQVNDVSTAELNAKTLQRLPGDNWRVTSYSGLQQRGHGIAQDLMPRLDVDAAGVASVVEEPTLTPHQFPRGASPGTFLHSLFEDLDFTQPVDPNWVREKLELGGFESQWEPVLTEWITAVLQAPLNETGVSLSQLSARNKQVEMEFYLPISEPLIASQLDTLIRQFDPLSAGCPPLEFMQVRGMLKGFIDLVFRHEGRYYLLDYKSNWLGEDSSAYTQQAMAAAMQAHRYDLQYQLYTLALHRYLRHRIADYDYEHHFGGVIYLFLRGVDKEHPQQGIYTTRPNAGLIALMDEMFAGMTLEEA
Sequence of Intestinal-type alkaline phosphatase (Mus musculus, UniProt P24822) (P24822 whole entry): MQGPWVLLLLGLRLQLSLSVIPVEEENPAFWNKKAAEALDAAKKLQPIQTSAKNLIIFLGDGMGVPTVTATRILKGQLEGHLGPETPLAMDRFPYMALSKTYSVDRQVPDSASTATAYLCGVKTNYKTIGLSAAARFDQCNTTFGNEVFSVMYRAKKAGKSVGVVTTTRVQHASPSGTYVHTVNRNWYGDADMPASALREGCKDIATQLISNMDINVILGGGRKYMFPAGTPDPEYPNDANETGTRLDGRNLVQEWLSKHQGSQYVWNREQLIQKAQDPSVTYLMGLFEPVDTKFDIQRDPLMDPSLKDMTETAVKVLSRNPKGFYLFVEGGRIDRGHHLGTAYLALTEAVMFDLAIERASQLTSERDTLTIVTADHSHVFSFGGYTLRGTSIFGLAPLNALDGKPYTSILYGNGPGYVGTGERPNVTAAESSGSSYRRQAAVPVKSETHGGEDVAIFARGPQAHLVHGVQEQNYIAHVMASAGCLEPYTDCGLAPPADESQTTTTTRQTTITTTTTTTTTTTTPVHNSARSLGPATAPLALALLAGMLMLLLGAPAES
Sequence of DNA dC->dU-editing enzyme APOBEC-3A (P31941 whole entry): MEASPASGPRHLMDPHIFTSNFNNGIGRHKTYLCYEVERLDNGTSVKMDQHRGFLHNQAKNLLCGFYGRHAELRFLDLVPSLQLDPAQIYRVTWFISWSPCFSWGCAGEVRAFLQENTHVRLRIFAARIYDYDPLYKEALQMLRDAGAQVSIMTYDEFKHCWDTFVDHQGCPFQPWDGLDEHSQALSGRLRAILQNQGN

Structure (SMILES): Cc1ccc(NC(=O)C[n+]2ccn(C3=C([O-])c4ccccc4C3=O)c2)cc1
- IC50 (Bcl-2-related protein A1): > 20 µM (inactive)
- IC50 [1]: 9.72 µM (active)
- IC50 [2]: 14.4 µM (active)

Structure (SMILES): CC(=O)Nc1ccc2nc(NC(=O)c3ccc([N+](=O)[O-])o3)sc2c1
- IC50 (Exodeoxyribonuclease V): > 119 µM (inactive)
- IC50 [3]: > 119 µM (inactive)

Structure (SMILES): O=S(=O)(Nc1ccc2ccccc2c1)c1ccc(Br)cc1OC(F)(F)F
- IC50 [4]: > 10 µM (inconclusive)
- IC50 [5]: > 10 µM (inactive)

Structure (SMILES): COc1ccc(Cl)cc1NC(=S)NCCC(c1ccccc1)c1ccccc1
- IC50 [6]: 11.3 µM (active)
- IC50 [7]: 23.9 µM (active)
- IC50 [8]: 15.9 µM (active)

Structure (SMILES): CC1=CC(C)(C)[N+](C)=CN1c1ccccc1
- IC50 [9]: 2.19 µM (active)
- IC50 [10]: 4.28 µM (active)
